Assay results from patent publication US10300074B2, “Use of inhibitor of apoptosis protein (IAP) antagonists in HIV therapy” (Sanford-Burnham Medical Research Institute, priority 2014, dated 2019).

What was measured:
[1] = test system: latently infected JLat 10.6 cells; conditions: for Reactivation of latent HIV (GFP reporter expression): single agent, 24 hours
[2] = test system: Latently infected Jurkat JLat 10.6 cells; conditions: HDAC inhibitor in combination with Compound 35, 36 hours, normalized against background of HDAC inhibitor alone
[3] = test system: HEK 293T cells infected with HIV-VSVg; assay type: cell-based
[4] = target: ML-IAP (Homo sapiens (Human), UniProt Q96CA5); assay: ML-IAP Ki; assay type: binding; conditions: Table B-1
ML-IAP, sequence (Q96CA5 whole entry): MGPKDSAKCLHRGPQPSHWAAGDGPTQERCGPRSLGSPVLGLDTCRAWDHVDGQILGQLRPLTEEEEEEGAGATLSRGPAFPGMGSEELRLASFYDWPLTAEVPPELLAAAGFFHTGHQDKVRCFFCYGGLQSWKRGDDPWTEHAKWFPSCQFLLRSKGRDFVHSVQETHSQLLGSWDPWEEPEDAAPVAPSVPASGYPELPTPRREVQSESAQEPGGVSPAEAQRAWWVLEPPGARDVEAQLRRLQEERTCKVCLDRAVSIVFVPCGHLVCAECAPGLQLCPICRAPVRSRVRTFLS

[5] = target: XIAP BIR3 (Homo sapiens (Human), UniProt P98170); assay: XIAP BIR3 Ki; assay type: binding; conditions: Table B-1
XIAP BIR3, sequence (P98170 241-356): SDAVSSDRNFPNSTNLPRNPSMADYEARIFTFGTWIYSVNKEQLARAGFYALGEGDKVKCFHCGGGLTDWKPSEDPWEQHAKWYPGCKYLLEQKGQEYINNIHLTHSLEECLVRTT

[6] = target: XIAP BIR1/2 (Homo sapiens (Human), UniProt P98170); assay: XIAP BIR1/2 Ki; assay type: binding; conditions: Table B-1
XIAP BIR1/2, sequence (P98170 1-240): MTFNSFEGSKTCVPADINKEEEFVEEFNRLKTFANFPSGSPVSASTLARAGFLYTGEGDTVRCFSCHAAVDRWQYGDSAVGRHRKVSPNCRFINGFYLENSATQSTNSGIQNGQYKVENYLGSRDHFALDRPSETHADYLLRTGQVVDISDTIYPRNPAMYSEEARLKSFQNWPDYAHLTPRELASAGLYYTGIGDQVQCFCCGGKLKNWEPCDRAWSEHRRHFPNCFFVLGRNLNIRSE

O=C(CCCCCCC(=O)Nc1ccccc1)NO [Vorinostat, vorinostat]
Activation of HIV transcription, combination versus components alone ([1]; in combination with Compound 35, 24 hours): greater effect than treatment with any of the components alone | Group: increase of GFP+ cells [2]: A (A 0-25%)

CN[C@@H](C)C(=O)N[C@H]1CCS[C@H]2CC(C)(C)C(C(=O)N[C@@H]3CCCc4ccccc43)N2C1=O (some centres unmarked) [Compound 35]
Viral gene transcription as measured by luciferase expression [3]: enhancement of viral gene transcription, as measured by luciferase expression, was proportional to the loss of BIRC2/cIAP1 protein | Reactivation of latent HIV (GFP reporter expression) [1]: caused reactivation of HIV | Ki [4]: ≤ 25 µM | Ki [5]: ≤ 25 µM | Ki [6]: ≤ 25 µM

CC[C@H](NC(=O)[C@H](C)NC)C(=O)N1C[C@@H](O)C[C@H]1Cc1c(-c2[nH]c3cc(F)ccc3c2C[C@@H]2C[C@H](O)CN2C(=O)[C@H](CC)NC(=O)[C@H](C)NC)[nH]c2cc(F)ccc12 [TL32711]
Reactivation of latent HIV (GFP reporter expression) [1]: Reactivation of latent HIV in JLat 10.6 cells was achieved
